Publication PMC12465524, “Cache: Utilizing ultra-large library screening in Rosetta to identify novel binders of the WD-repeat domain of Leucine-Rich Repeat Kinase 2” (Journal of Cheminformatics, 2025)

Assays:
[1] = target: T1, Leucine-Rich Repeat Kinase 2 (LRRK2) WDR40 domain (Homo sapiens, UniProt Q5S007); experiment: SPR (not confirmed by orthogonal assays); assay type: binding
T1 construct: WDR40 domain
T1 sequence (Q5S007 2142-2527 limits assumed): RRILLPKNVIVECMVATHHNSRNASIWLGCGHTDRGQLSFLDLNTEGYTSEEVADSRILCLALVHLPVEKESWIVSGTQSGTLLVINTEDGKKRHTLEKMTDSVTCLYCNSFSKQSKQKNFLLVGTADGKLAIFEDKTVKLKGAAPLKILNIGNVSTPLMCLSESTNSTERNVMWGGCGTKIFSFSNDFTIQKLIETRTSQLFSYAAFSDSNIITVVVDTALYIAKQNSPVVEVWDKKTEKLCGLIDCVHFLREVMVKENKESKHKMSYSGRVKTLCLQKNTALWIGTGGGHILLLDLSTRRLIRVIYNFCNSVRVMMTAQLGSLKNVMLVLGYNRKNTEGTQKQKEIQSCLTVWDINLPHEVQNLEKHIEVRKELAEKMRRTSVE

[2] = target: T1, Leucine-Rich Repeat Kinase 2 (LRRK2) WDR40 domain; experiment: SPR; weak DSF stabilization (ΔTm […] °C); assay type: binding

Row | Kd [1] [µM] | Kd [2] [µM] | SMILES
1 | 59 | – | Cn1nnc(-c2ccccc2)c1CNc1cccc(-n2cnnn2)c1 [A, N-[(1-methyl-4-phenyl-1 H-1,2,3-triazol-5-yl)methyl]-3-(1 H-1,2,3,4-tetrazol-1-yl)-aniline]
2 | 35 | – | O=c1[nH]c2ccc(CNc3cccc(-n4cnnn4)c3)cc2[nH]1 [B, compound B]
3 | – | 100 | CSc1ccc(CNc2cccc(-n3cnnn3)c2)cc1 [D, N-[4-(methylsulfanyl)phenyl]methyl-3-(1 H-1,2,3,4-tetrazol-1-yl)aniline]
